{"source": "patent US9365491B2", "about": "“Inhibitors of cognitive decline” (COGNITION THERAPEUTICS, INC., priority 2009, dated 2016)", "key": {"[1]": {"system": "Abeta oligomer-induced acceleration of exocytosis in primary neurons", "experiment": "Exocytosis assay/MTT assay (Example AA)", "format": "cell-based, rat", "settings": "Primary neuron", "protocol": "Primary neurons from E18 Sprague-Dawley rat embryos are plated at optimized concentrations in 384 well plates in NB media (Invitrogen). Neurons are maintained in cultures for 3 weeks, with twice weekly feeding of NB media with N2 supplement (Invitrogen). A test compound is added to cells, followed by addition of Vehicle or Abeta oligomer preparations (1.5 μM), and incubated for 1 to 24 hr at 37° C. in 5% CO2. MTT reagent (3-(4,5-dimethylthizaol-2yl)-2,5diphenyl tetrazolium bromide) (Roche Molecular Biochemicals) is reconstituted in phosphate buffered saline to 5 mg/mL. 10 μL of MTT labeling reagent is added to each well and incubated at 37° C. for 1 h, then imaged.\nEach assay plate is formatted so that compounds are tested with and without Abeta on each plate. […] Statistical performance of the screening plate layout are assessed, screening will be initiated if the current performance is maintained. […]\nOptimal cell density is determined based on cellular response to Abeta oligomers using the exocytosis assay as a readout, and immunohistochemical analysis of the relative proportion of glia to neurons in the cultures. Cultures are monitored on a weekly basis with immunohistochemistry and image processing-based quantification to monitor the percentage of the cultures that are neurons vs. glia (Glial cells). […]"}, "Abeta 1-42 Oligomers": {"molecular_target": "T1, Abeta 1-42 Oligomers (Homo sapiens, UniProt P05067)", "T1 construct": "Human amyloid peptide 1-42 is obtained from California Peptide; purchased California Peptide", "T1 sequence (P05067 672-713)": "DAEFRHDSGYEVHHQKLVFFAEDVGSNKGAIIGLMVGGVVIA", "experiment": "Binding assay (Example BB): Abeta oligomer binding to neurons, image processing", "settings": "imaging processing algorithm", "protocol": "Each test compound was added to a plate followed by an addition of one or more of Abeta 1-42 Oligomers. The plates were fixed with 3.7% paraformaldehyde in phosphate buffered saline (PBS) for 15 min. The plate was then washed 3× with PBS for 5 min each. The plates were blocked at room temperature for 1 hour in 5% goat serum and 0.5% Triton X-100 (CAS number: 9002-93-1) in PBS. Primary antibodies (anti-MAP 2 polyclonal, Millipore #AB5622 and anti-Beta Amyloid 6E10 monoclonal, Convance #SIG-39300) were diluted 1:1000 in 5% goat serum with PBS. Primary antibodies were incubated either overnight at 4° C. or 1 hour at RT. The plate was then washed 3× with PBS for 5 min each. Secondary antibodies (Alex Flor 488 polyclonal, Invitrogen #A11008 and Alexa Flor 647 monoclonal, Invitrogen #A21235) were diluted 1:1000 in 5% goat serum with PBS. Secondary antibodies were incubated at RT for 1 hr. The plates were washed once with PBS. […]\nHuman amyloid peptide 1-42 is obtained from California Peptide, with lot-choice contingent upon quality control analysis. […] Toxicity is monitored in each image-based assay via quantification of nuclear morphology visualized with the DNA binding dye DAPI (Invitrogen). […]\nImages were captured and analyzed with the Cellomics VTI automated microscope platform, using the Neuronal Profiling algorithm. […]"}, "[2]": {"experiment": "Pharmacokinetic studies (Example CC), plasma", "format": "in vivo", "settings": "rat, iv, rats, injected intravenously at 1 mg/Kg", "protocol": "PK studies are performed at CEREP Inc of Redmond Wash., according to their standard protocols: The plasma samples were processed using acetonitrile precipitation and analyzed by HPLC-MS or HPLC-MS/MS. Peak areas were recorded, and the concentrations of the test compound in the unknown plasma samples were determined using the respective calibration curve. The reportable linear range of the assay was determined, along with the lower limit of quantitation (LLQ).\nPharmacokinetic studies were performed according to the following protocols: The plasma samples were processed using acetonitrile precipitation and analyzed by HPLC-MS or HPLC-MS/MS. Peak areas were recorded, and the concentrations of the test compound in the unknown plasma samples were determined using the respective calibration curve. The reportable linear range of the assay was determined, along with the lower limit of quantitation (LLQ)."}, "[3]": {"system": "Abeta oligomer effects on membrane trafficking in mature primary neurons", "experiment": "Primary neuron-based functional screening assay (membrane trafficking/exocytosis, Example DD)", "format": "cell-based, rat", "settings": "for activity in blocking the effects of Abeta oligomers on membrane trafficking: compound added to neurons before oligomers", "text": "Primary rat neurons grown for at least 3 weeks in vitro were chosen as the basis for this screening assay. […] More complex systems such as acute or organotypic brain slices are very useful but not amenable to high throughput screening. […] For this reason, primary neuronal cultures were chosen because of their ability to be used in high throughput screens and fidelity to what occurs in vivo.\n(Scale bar=20 microns in FIG. 1A). […] (FIG. 1B).\nThe MTT assay can be used as a measure of toxicity in cultures. Yellow tetrazolium salts were endocytosed by cells and reduced to insoluble purple formazan in the endosomal pathway. The level of purple formazan was a reflection of the number of actively metabolizing cells in culture, and reduction in the amount of formazan was taken as a measure of cell death or metabolic toxicity in culture.\nThe exocytosis assay was adapted for use with mature primary neuronal cultures grown for 3 weeks in vitro.\nCompounds were added to neurons first, then oligomers were added.\nData were the average of 3 experiments. Scale bar=20 micron in FIG. 2D."}, "[4]": {"system": "Abeta oligomer-mediated memory deficits", "experiment": "Fear conditioning assay (Example EE)", "format": "in vivo, mice", "protocol": "Compound Example 2 was tested in an animal model of a memory-dependent behavioral task known as fear conditioning. The study protocol was designed based on published protocols (See e.g. Puzzo D, Privitera L, Leznik E, Fà M, Staniszewski A, Palmeri A, Arancio O. Picomolar amyloid-beta positively modulates synaptic plasticity and memory in hippocampus. J Neurosci. 2008 Dec. 31; 28(53)14537-45.). The formation of contextual memories is dependent upon the integrity of medial temporal lobe structures such as the hippocampus. In this assay mice were trained to remember that a particular salient context (conditioned stimulus; CS) is associated with an aversive event, in this case a mild foot shock (the unconditioned stimulus, US). Animals that show good learning will express an increase in freezing behavior when placed back into the same context. This freezing is absent in a novel context. Increased freezing in the context indicates strong hippocampal-dependent memory formation in animals. Memory tested in Fear Conditioning is sensitive to elevations of soluble Aβ. […] The fear condition model for memory was performed as described herein."}, "[5]": {"system": "Abeta assemblies isolated from AD patients or normal individuals", "experiment": "Membrane trafficking assay with patient-derived Abeta assemblies (Example FF)", "format": "cell-based", "settings": "FIG. 4", "protocol": "Abeta assemblies were isolated from patients with Alzheimer's Disease (AD) or from normal patients. The Abeta assemblies were tested for their ability to modulate membrane trafficking. […] (FIG. 4). […] Compound Example 2 has no effect on Abeta assemblies isolated from Age-matched normal individuals. (FIG. 4). […] (FIG. 4)."}}, "note": "pEC50: −log10 of the molar value. “Also recorded” adds a separate entry of the source.", "data": [{"compound": "COc1cc(CCC(C)NCc2ccc(Cl)cc2)ccc1O", "note": "(stereo not drawn) [Compound Example 1, 4-(3-(4-chlorobenzylamino)butyl)-2-methoxyphenol]", "values": [{"measurement": "pEC50", "setting": "[1]; MTT assay, primary rat neurons, Abeta oligomers 1.5 μM, read-out: EC50 for block of Abeta oligomer-induced acceleration of exocytosis", "result": 5.00}, {"measurement": "partial block of binding of the Abeta oligomer ligand to neurons", "setting": "Abeta 1-42 Oligomers", "result": 24, "unit": "%"}, {"measurement": "half-life", "setting": "[2]", "result": 46, "unit": "min"}]}, {"compound": "COc1cc(CCC(C)NCc2ccc(C(F)(F)F)cc2)ccc1O", "note": "(stereo not drawn) [Compound Example 2, 4-(3-(4-(trifluoromethyl)benzylamino)butyl)-2-methoxyphenol]", "values": [{"measurement": "pEC50", "setting": "[3]; Rattus norvegicus, Primary neuron, 504 h, FIG. 2B, primary neurons 3 weeks in vitro, read-out: EC50 for inhibition of oligomer effects on membrane trafficking", "result": 5.15}, {"measurement": "activity in blocking the effects of Abeta oligomers on membrane trafficking", "setting": "[3]", "result": "inhibits oligomer effects on membrane trafficking; also recorded: effective"}, {"measurement": "effect on Abeta oligomer-mediated memory deficits", "setting": "[4]; 2 pmol dose, given prior to Abeta (200 nM), contextual fear conditioning, FIG. 3 bar d", "result": "completely blocked"}, {"measurement": "block of oligomer effects on memory across doses", "setting": "[4]; administered prior to Abeta oligomer administration", "result": "blocked oligomer effects on memory in a dose-dependent manner"}, {"measurement": "adverse behavioral changes", "setting": "[4]; any dose", "result": "No adverse behavioral changes were observed"}, {"measurement": "effect of compound alone on memory", "setting": "[4]; no Abeta, data not shown", "result": "No effect"}, {"measurement": "effect on trafficking effects of AD-brain derived Abeta assemblies", "setting": "[5]; IMW (10-100 KDa) assemblies from AD patients", "result": "significantly blocked"}, {"measurement": "effect on Abeta assemblies isolated from Age-matched normal individuals", "setting": "[5]; IMW assemblies from normal individuals", "result": "no effect"}]}, {"compound": "C[C@]12N[C@H](Cc3ccccc31)c1ccccc12", "note": "[MK-801, reference compound]", "values": [{"measurement": "activity in blocking the effects of Abeta oligomers on membrane trafficking", "setting": "[3]", "result": "none were active"}]}, {"compound": "CC12CC3CC(C)(C1)CC(N)(C3)C2", "note": "[Memantine, memantine, reference compound]", "values": [{"measurement": "inhibition at 28 µM", "setting": "[1]; Rattus norvegicus, 28 μM memantine, control on each plate, read-out: inhibition of oligomer effects", "result": 50, "unit": "%"}]}, {"compound": "C[N+](C)(C)CCCCCC[N+](C)(C)C", "note": "[hexamethonium bromide, reference compound]", "values": [{"measurement": "activity in blocking the effects of Abeta oligomers on membrane trafficking", "setting": "[3]", "result": "none were active"}]}, {"compound": "O[C@H]1[C@H](O)[C@@H](O)[C@H](O)[C@@H](O)[C@@H]1O", "note": "[scyllo-inositol, reference compound]", "values": [{"measurement": "activity in blocking the effects of Abeta oligomers on membrane trafficking", "setting": "[3]", "result": "none were active"}]}]}
